Values after ≈ are worked out from the molar mass of the structure shown. Like-named read-outs stand apart in the source and are kept apart here.
Assays:
Assay type in all cases: physicochemical
[1] = Static storage stability of solid forms (40° C./75% RH, 25° C./96% RH), form checked by XRPD; conditions: for Static Stability 40° C./75% RH: dried screening sample, solid form after 7 and 36 days at 40° C./75% RH
[2] = Solubility screen: solubility assessment of amorphous Compound 1 in solvents; conditions: thermodynamic from solid, room temperature
Procedure: Amorphous Compound 1 (30 mg) was weighed out and 100 μl (˜3 vols) solvent was added at room temperature. Many samples initially dissolved but precipitated back out again after stirring for a few minutes. It was assumed that these samples had crystallized, so additional portions of solvent were added to determine the solubility of the crystalline material. See Table 1 for solubility assessment of amorphous Compound 1. […]

[3] = Gravimetric vapour sorption (GVS) isotherm, hygroscopicity; conditions: for weight increase (GVS): increase in relative humidity from about 0 to about 90% relative humidity
[4] = Gravimetric vapour sorption (GVS); conditions: for GVS total weight change 0-90% RH: 25° C.
Procedure: Gravimetric Vapour Sorption (GVS)
Sorption isotherms were obtained using a SMS DVS Intrinsic moisture sorption analyser, controlled by DVS Intrinsic Control software v1.0.1.2 (or v 1.0.1.3). The sample temperature was maintained at 25° C. by the instrument controls. The humidity was controlled by mixing streams of dry and wet nitrogen, with a total flow rate of 200 ml/min The relative humidity was measured by a calibrated Rotronic probe (dynamic range of 1.0-100% RH), located near the sample. The weight change, (mass relaxation) of the sample as a function of % RH was constantly monitored by the microbalance (accuracy ±0.005 mg). Typically 5-20 mg of sample was placed in a tared mesh stainless steel basket under ambient conditions. The sample was loaded and unloaded at 40% RH and 25° C. (typical room conditions). A moisture sorption isotherm was performed as outlined below (2 scans giving 1 complete cycle). The standard isotherm was performed at 25° C. at 10% RH intervals over a 0-90% RH range. Data analysis was carried out using Microsoft Excel using DVS Analysis Suite v6.2 (or 6.1 or 6.0).

[5] = Static stability on storage at controlled temperature/RH (XRPD, purity)
Text: (§1) See tables below for the summarized results.

[6] = Kinetic solubility after 30 min in water and in 0.1M HCl; conditions: for solubility kinetic at 30 min: thermodynamic from solid, cocrystal, in duplicate, read-out: 30 min Kinetic solubility (pH)
Text: as §1

[7] = Competitive slurry/water activity experiments with Forms 1 and 6
Text: IPA/water and ACN/water were selected as suitable solvents for the competitive slurry/water activity experiments. These solvent mixtures were selected to have some solubility of the Compound 1 free base and to be able to obtain a wide range of water activities by varying the water content. IPA/water was selected as this solvent often formed solvated forms of the free base and ACN/water was selected as this solvent produced only Form 1 of the free base during the polymorph screening experiments.
There was one exception to this—the IPA/water sample at 50° C. and at a water activity of 0.8 gave Form 1 rather than Form 4.

[8] = 7 d storage at 40° C./75% RH and at 25° C./97% RH, result stated for both conditions
[9] = after 63 days, no change in form but loss of crystallinity

For `C[C@H](NC(=O)c1c(N)nn2cccnc12)c1cc2cccc(C#Cc3cnn(C)c3)c2c(=O)n1-c1ccccc1` [Form 7, (S)-2-amino-N-(1-(8-((1-methyl-1H-pyrazol-4-yl)ethynyl)-1-oxo-2-phenyl-1,2-dihydroisoquinolin-3-yl)ethyl)pyrazolo[1,5-a]pyrimidine-3-carboxamide], the “Static Stability 40° C./75% RH” value [1] was “remains Form 7”.
A solubility ([2]; organic solvent or mixture, in 1,2-Dimethoxyethane) of under 17 mg/mL, a solubility ([2]; organic solvent or mixture, in 1,4-Dioxane) of under 17 mg/mL and a solubility ([2]; organic solvent or mixture, in 1-Propanol) of under 17 mg/mL were found for `C[C@H](NC(=O)c1c(N)nn2cccnc12)c1cc2cccc(C#Cc3cnn(C)c3)c2c(=O)n1-c1ccccc1` [amorphous Compound 1, (S)-2-amino-N-(1-(8-((1-methyl-1H-pyrazol-4-yl)ethynyl)-1-oxo-2-phenyl-1,2-dihydroisoquinolin-3-yl)ethyl)pyrazolo[1,5-a]pyrimidine-3-carboxamide] in this work. The solubility ([2]; organic solvent or mixture, in 2-Methoxyethanol) was at least 333 mg/mL, the solubility ([2]; organic solvent or mixture, in 2-Methyl-1-propanol) was under 17 mg/mL and the solubility ([2]; organic solvent or mixture, in 2-Propanol) was under 17 mg/mL. The solubility ([2]; organic solvent or mixture, in Acetone) was under 17 mg/mL, the solubility ([2]; organic solvent or mixture, in Acetonitrile) was under 17 mg/mL and the solubility ([2]; organic solvent or mixture, in Chloroform) was under 17 mg/mL. The solubility ([2]; organic solvent or mixture, in Cyclohexane) was under 17 mg/mL, the solubility ([2]; organic solvent or mixture, in Dichloromethane) was 17 to 20 mg/mL (≈ 32.2 to 37.8 mM) and the solubility ([2]; organic solvent or mixture, in Dimethyl sulfoxide) was at least 333 mg/mL. It also gave a solubility ([2]; organic solvent or mixture, in Ethanol) of under 17 mg/mL, a solubility ([2]; organic solvent or mixture, in Ethyl acetate) of under 17 mg/mL and a solubility ([2]; organic solvent or mixture, in Ethyleneglycol) of under 17 mg/mL. For the same compound, the solubility ([2]; organic solvent or mixture, in IPA/Water (95/5 v/v)) was under 17 mg/mL, the solubility ([2]; organic solvent or mixture, in Isopropyl acetate) was under 17 mg/mL and the solubility ([2]; organic solvent or mixture, in MEK) was under 17 mg/mL. For the same compound, the solubility ([2]; organic solvent or mixture, in MIBK) was under 17 mg/mL, the solubility ([2]; organic solvent or mixture, in Methanol) was under 17 mg/mL and the solubility ([2]; organic solvent or mixture, in N,N-Dimethylformamide) was at least 333 mg/mL. It also gave a solubility ([2]; organic solvent or mixture, in Nitromethane) of 25 to 33 mg/mL (≈ 47.3 to 62.4 mM), a solubility ([2]; organic solvent or mixture, in THF/Water (95/5 v/v)) of under 17 mg/mL and a solubility ([2]; organic solvent or mixture, in Tetrahydrofuran) of under 17 mg/mL. The solubility ([2]; organic solvent or mixture, in Toluene) was under 17 mg/mL, the solubility ([2]; organic solvent or mixture, in n-Heptane) was under 17 mg/mL and the solubility ([2]; organic solvent or mixture, in tert-Butylmethyl ether) was under 17 mg/mL. It also gave a solubility ([2]; in Water) of under 17 mg/mL.
For `C[C@H](NC(=O)c1c(N)nn2cccnc12)c1cc2cccc(C#Cc3cnn(C)c3)c2c(=O)n1-c1ccccc1` [Form 2, (S)-2-amino-N-(1-(8-((1-methyl-1H-pyrazol-4-yl)ethynyl)-1-oxo-2-phenyl-1,2-dihydroisoquinolin-3-yl)ethyl)pyrazolo[1,5-a]pyrimidine-3-carboxamide], the hygroscopicity [3] was “non-hygroscopic”, the “weight increase (GVS)” value [3] was “about 1.3%” and the “Static Stability 40° C./75% RH” value [1] was “amorphous after 7”.
In the case of `C[C@H](NC(=O)c1c(N)nn2cccnc12)c1cc2cccc(C#Cc3cnn(C)c3)c2c(=O)n1-c1ccccc1` [Form 3, (S)-2-amino-N-(1-(8-((1-methyl-1H-pyrazol-4-yl)ethynyl)-1-oxo-2-phenyl-1,2-dihydroisoquinolin-3-yl)ethyl)pyrazolo[1,5-a]pyrimidine-3-carboxamide], the “Static Stability 40° C./75% RH” value [1] is reported as “remains Form 3”.
In the case of `C[C@H](NC(=O)c1c(N)nn2cccnc12)c1cc2cccc(C#Cc3cnn(C)c3)c2c(=O)n1-c1ccccc1` [Form 4, (S)-2-amino-N-(1-(8-((1-methyl-1H-pyrazol-4-yl)ethynyl)-1-oxo-2-phenyl-1,2-dihydroisoquinolin-3-yl)ethyl)pyrazolo[1,5-a]pyrimidine-3-carboxamide], the “Static Stability 40° C./75% RH” value [1] is reported as “remains Form 4”.
With `C[C@H](NC(=O)c1c(N)nn2cccnc12)c1cc2cccc(C#Cc3cnn(C)c3)c2c(=O)n1-c1ccccc1` [Form P1C3] the “weight increase (GVS)” value [3] was “about 3.7%”, the GVS hysteresis [4] was “No hysteresis” and the “GVS weight gain from 0-90% RH” value ([4]; 0-90% RH) was 3.67%. The “Hygroscopicity by GVS” value ([4]; 0-90% RH) was “moderately hygroscopic”, the GVS weight gain ([4]; from 0-90% RH, cycle 2) was 3.67% and the “HPLC purity change after 7 d 40° C. 75% RH 25° C. 97% RH” value [5, 8] was under 3% for both. The “XRPD after 7 d 40° C. 75% RH 25° C. 97% RH” value [5, 8] was “no change”, the “XRPD after 7 d at 25° C. 97% RH” value ([5]; after 7 d) was “no changes” and the “Static stability at 40° C./75% RH, XRPD” value ([5]; after 7 days) was “no changes”. The “Stability at 25° C./96% RH, purity and XRPD” value ([5]; after a week) was “no significant change”, the “Stability at 40° C./75% RH, purity and XRPD” value ([5]; after a week) was “no significant change” and the solubility kinetic at 30 min ([6]; 0.1M HCl, pH 1.3, simulated gastric fluid, in 0.1M HCl, pH 1.3) was 0.02 mg/mL (≈ 0.0378 mM). For the same compound, the “Kinetic solubility in 0.1M HCl compared with the free base” value ([6]; after 30 min, 0.1M HCl) was “very similar to the free base solubility”, the “Kinetic solubility in water compared with the free base” value ([6]; after 30 min, water) was “slightly higher solubility values” and the “Kinetic solubility with respect to the free base” value ([6]; summary statement) was “slight improve in solubility”. The solubility kinetic at 30 min ([6]; water, pH 2.9, water, in water, pH 2.9, 3.0) was 0.04 mg/mL (≈ 0.0757 mM).
For `C[C@H](NC(=O)c1c(N)nn2cccnc12)c1cc2cccc(C#Cc3cnn(C)c3)c2c(=O)n1-c1ccccc1` [Form 1 reference], the “Hygroscopicity by GVS” value ([4]; 0-90% RH) was “non-”, the “GVS total weight change 0-90% RH” value ([4]; 0-90% RH) was about 0.5 wt % and the “Static stability at 25° C./96% RH, XRPD” value ([5]; after 7 days) was “no change after 7 days,”. For the same compound, the “Static stability at 40° C./75% RH, XRPD” value ([5]; after 7 days) was “no change after 7 days,”, the “Static stability at 25° C./96% RH, form by XRPD” value [5, 9] was “after 63 days no change” and the “Static stability at 40° C./75% RH, form by XRPD” value [5, 9] was “after 63 days no change”.
With `C[C@H](NC(=O)c1c(N)nn2cccnc12)c1cc2cccc(C#Cc3cnn(C)c3)c2c(=O)n1-c1ccccc1` [Form 6, (S)-2-amino-N-(1-(8-((1-methyl-1H-pyrazol-4-yl)ethynyl)-1-oxo-2-phenyl-1,2-dihydroisoquinolin-3-yl)ethyl)pyrazolo[1,5-a]pyrimidine-3-carboxamide] the “weight increase (GVS)” value [3] was “about 14%”, the “Hygroscopicity by GVS” value ([4]; 0-90% RH) was “hygroscopic. Large steps 40-60%” and the “GVS total weight change 0-90% RH” value ([4]; 0-90% RH) was 15.0 wt %. The “Static stability at 40° C./75% RH, XRPD” value ([5]; after 7 days) was “subtle changes in XRPD after”, the “Static stability at 25° C./96% RH, XRPD” value ([5]; after 26 days) was “no change in XRPD after 26” and the “Static stability at 40° C./75% RH, XRPD” value ([5]; after 26 days) was “no further changes after 26”. For the same compound, the “Relative stability of forms in ACN/water slurry” value ([7]; 5° C., ACN/water, water activity 0.8 (15 vol % water)) was “more stable than Form 1”.
For `C[C@H](NC(=O)c1c(N)nn2cccnc12)c1cc2cccc(C#Cc3cnn(C)c3)c2c(=O)n1-c1ccccc1` [Form 1, (S)-2-amino-N-(1-(8-((1-methyl-1H-pyrazol-4-yl)ethynyl)-1-oxo-2-phenyl-1,2-dihydroisoquinolin-3-yl)ethyl)pyrazolo[1,5-a]pyrimidine-3-carboxamide], the hygroscopicity [3] was “non-hygroscopic”, the “weight increase (GVS)” value [3] was “about 0.5%” and the stability after storage ([1]; 25° C./96% RH for more than 9 months) was “stable”. The stability after storage ([1]; 40° C./75% RH for more than 9 months) was “stable”, the “Static Stability 40° C./75% RH” value [1] was “no change after 7” and the “Relative stability of forms in ACN/water slurries” value ([7]; all ACN/water experiments except 50° C. and 5° C. at water activity 0.8) was “most stable form”. For the same compound, the “Relative stability of forms in IPA/water slurries” value ([7]; all temperatures (5, 25, 50° C.) and water activities (0.2-0.8), slurried 4 days) was “more stable than Form 6”.

From patent publication US12384792B2, “Solid forms of isoquinolinones, and process of making, composition comprising, and methods of using the same” (Twelve Therapeutics, Inc., priority 2015, dated 2025)
